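Cultured in 96-well plates, cells were exposed to test compound for 48 hours across five concentrations. GI50 is the concentration that inhibits growth by half. TGI: total growth inhibition.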
Assays:
Assay in all cases: DTP human tumour cell line panel, 48 h
HCT-15 colon = tested on: HCT-15 colon
U251 CNS = tested on: U251 CNS
PC-3 prostate = tested on: PC-3 prostate
HOP-62 NSCLC = tested on: HOP-62 NSCLC
UO-31 renal = tested on: UO-31 renal
MOLT-4 leukemia = tested on: MOLT-4 leukemia
OVCAR-8 ovarian = tested on: OVCAR-8 ovarian
SF-295 CNS = tested on: SF-295 CNS
SF-268 CNS = tested on: SF-268 CNS
NCI-H460 lung = tested on: NCI-H460 lung
RPMI-8226 leukemia = tested on: RPMI-8226 leukemia
NCI-H522 lung = tested on: NCI-H522 lung
MDA-MB-435 = tested on: MDA-MB-435
K-562 leukemia = tested on: K-562 leukemia
SNB-75 CNS = tested on: SNB-75 CNS
TK-10 renal = tested on: TK-10 renal
SF-539 CNS = tested on: SF-539 CNS
KM12 colon = tested on: KM12 colon
A549 NSCLC = tested on: A549 NSCLC
SK-OV-3 ovarian = tested on: SK-OV-3 ovarian
HCC-2998 colon = tested on: HCC-2998 colon
SN12C renal = tested on: SN12C renal
M14 melanoma = tested on: M14 melanoma
DU-145 prostate = tested on: DU-145 prostate
ACHN renal = tested on: ACHN renal
MCF7 breast = tested on: MCF7 breast
NCI-H226 lung = tested on: NCI-H226 lung
SK-MEL-5 melanoma = tested on: SK-MEL-5 melanoma
CAKI-1 renal = tested on: CAKI-1 renal
SW-620 colon = tested on: SW-620 colon
SR leukemia = tested on: SR leukemia
T-47D breast = tested on: T-47D breast
COLO 205 colon = tested on: COLO 205 colon
UACC-257 melanoma = tested on: UACC-257 melanoma
786-0 renal = tested on: 786-0 renal
OVCAR-3 ovarian = tested on: OVCAR-3 ovarian
OVCAR-4 ovarian = tested on: OVCAR-4 ovarian
SK-MEL-28 melanoma = tested on: SK-MEL-28 melanoma
BT-549 breast = tested on: BT-549 breast
EKVX NSCLC = tested on: EKVX NSCLC
HL-60(TB) leukemia = tested on: HL-60(TB) leukemia
SK-MEL-2 melanoma = tested on: SK-MEL-2 melanoma
OVCAR-5 ovarian = tested on: OVCAR-5 ovarian
RXF 393 renal = tested on: RXF 393 renal
HCT-116 colon = tested on: HCT-116 colon
A498 renal = tested on: A498 renal
HT29 colon = tested on: HT29 colon
NCI/ADR-RES ovarian = tested on: NCI/ADR-RES ovarian
HOP-92 NSCLC = tested on: HOP-92 NSCLC

Compound: Nc1nc(N)c2c(n1)NC(c1ccc(F)cc1)CC(c1ccc(Nc3nc(NCCO)nc(Nc4ccc(Cl)cc4)n3)cc1)=N2 (stereo not drawn)
- GI50 (HCT-15 colon): 1.03 µM
- TGI (HCT-15 colon): 2.84 µM
- GI50 (U251 CNS): 1.37 µM
- TGI (U251 CNS): 2.73 µM
- GI50 (PC-3 prostate): 1.72 µM
- TGI (PC-3 prostate): 11.4 µM
- GI50 (HOP-62 NSCLC): 1.77 µM
- TGI (HOP-62 NSCLC): 4.3 µM
- GI50 (UO-31 renal): 3.07 µM
- TGI (UO-31 renal): 20.4 µM
- GI50 (MOLT-4 leukemia): 0.532 µM
- TGI (MOLT-4 leukemia): 3.47 µM
- GI50 (OVCAR-8 ovarian): 1.16 µM
- TGI (OVCAR-8 ovarian): 2.81 µM
- GI50 (SF-295 CNS): 1.96 µM
- TGI (SF-295 CNS): 3.75 µM
- GI50 (SF-268 CNS): 2.85 µM
- TGI (SF-268 CNS): 12.3 µM
- GI50 (NCI-H460 lung): 1.71 µM
- TGI (NCI-H460 lung): 3.63 µM
- GI50 (RPMI-8226 leukemia): 1.01 µM
- TGI (RPMI-8226 leukemia): 3.24 µM
- GI50 (NCI-H522 lung): 1.43 µM
- TGI (NCI-H522 lung): 2.97 µM
- GI50 (MDA-MB-435): 1.7 µM
- TGI (MDA-MB-435): 3.55 µM
- GI50 (K-562 leukemia): 0.489 µM
- TGI (K-562 leukemia): > 100 µM
- GI50 (SNB-75 CNS): 3.35 µM
- TGI (SNB-75 CNS): 16 µM
- GI50 (TK-10 renal): 4.61 µM
- TGI (TK-10 renal): 15.5 µM
- GI50 (SF-539 CNS): 1.56 µM
- TGI (SF-539 CNS): 3.15 µM
- GI50 (KM12 colon): 1.68 µM
- TGI (KM12 colon): 3.71 µM
- GI50 (A549 NSCLC): 3.12 µM
- TGI (A549 NSCLC): > 100 µM
- GI50 (SK-OV-3 ovarian): 12.9 µM
- TGI (SK-OV-3 ovarian): 25.5 µM
- GI50 (HCC-2998 colon): 1.61 µM
- TGI (HCC-2998 colon): 3.05 µM
- GI50 (SN12C renal): 2.08 µM
- TGI (SN12C renal): 5.19 µM
- GI50 (M14 melanoma): 1.66 µM
- TGI (M14 melanoma): 3.3 µM
- GI50 (DU-145 prostate): 1.75 µM
- TGI (DU-145 prostate): 3.5 µM
- GI50 (ACHN renal): 3.22 µM
- TGI (ACHN renal): 17.3 µM
- GI50 (MCF7 breast): 0.956 µM
- TGI (MCF7 breast): 2.43 µM
- GI50 (NCI-H226 lung): 2.49 µM
- TGI (NCI-H226 lung): 7.11 µM
- GI50 (SK-MEL-5 melanoma): 1.46 µM
- TGI (SK-MEL-5 melanoma): 2.78 µM
- GI50 (CAKI-1 renal): 6.14 µM
- TGI (CAKI-1 renal): 39.6 µM
- GI50 (SW-620 colon): 1.6 µM
- TGI (SW-620 colon): 3.27 µM
- GI50 (SR leukemia): 0.672 µM
- TGI (SR leukemia): 4.75 µM
- GI50 (T-47D breast): 1.27 µM
- TGI (T-47D breast): 3.2 µM
- GI50 (COLO 205 colon): 1.49 µM
- TGI (COLO 205 colon): 2.94 µM
- GI50 (UACC-257 melanoma): 1.85 µM
- TGI (UACC-257 melanoma): 3.52 µM
- GI50 (786-0 renal): 1.36 µM
- TGI (786-0 renal): 3.11 µM
- GI50 (OVCAR-3 ovarian): 1.58 µM
- TGI (OVCAR-3 ovarian): 3.28 µM
- GI50 (OVCAR-4 ovarian): 1.93 µM
- TGI (OVCAR-4 ovarian): 6.43 µM
- GI50 (SK-MEL-28 melanoma): 1.7 µM
- TGI (SK-MEL-28 melanoma): 3.18 µM
- GI50 (BT-549 breast): 1.56 µM
- TGI (BT-549 breast): 3.17 µM
- GI50 (EKVX NSCLC): 1.66 µM
- TGI (EKVX NSCLC): 5.35 µM
- GI50 (HL-60(TB) leukemia): 0.863 µM
- TGI (HL-60(TB) leukemia): 3.51 µM
- GI50 (SK-MEL-2 melanoma): 1.67 µM
- TGI (SK-MEL-2 melanoma): 3.1 µM
- GI50 (OVCAR-5 ovarian): 5.1 µM
- TGI (OVCAR-5 ovarian): 24.4 µM
- GI50 (RXF 393 renal): 1.17 µM
- TGI (RXF 393 renal): 2.63 µM
- GI50 (HCT-116 colon): 1.2 µM
- TGI (HCT-116 colon): 2.5 µM
- GI50 (A498 renal): 3.72 µM
- TGI (A498 renal): 15.3 µM
- GI50 (HT29 colon): 1.42 µM
- TGI (HT29 colon): 3.15 µM
- GI50 (NCI/ADR-RES ovarian): 7.73 µM
- TGI (NCI/ADR-RES ovarian): > 100 µM
- GI50 (HOP-92 NSCLC): 1.25 µM
- TGI (HOP-92 NSCLC): 3.54 µM
